Reference: article PMC8769072, “Proteome‐scale mapping of binding sites in the unstructured regions of the human proteome” (Molecular Systems Biology, 2022)
Like-named read-outs stand apart in the source and are kept apart here. Where a SMILES comes first, the peptide text is derived from it. Where no end group is shown, it is not given here. [ ]: non-standard residue; d: D form. pY = N[C@@H](Cc1ccc(OP(=O)(O)O)cc1)C(=O)O; pS = N[C@@H](COP(=O)(O)O)C(=O)O

Columns and labels:
Assay type in all cases: binding
KPNB1 HEAT = biological target: T1, KPNB1 HEAT (Homo sapiens, UniProt Q14974); experiment: FP competition, KPNB1 HEAT; settings: for Ki: FP competition with FITC-NUP153 probe, low-affinity value
T1 construct: Q14974; KPNB1; HEAT; 485; pETM41; Genescript; 6-His-MBP (from vector pETM41) (cleaved yes); made in house; host or cells: bacteria (E. coli BL21(DE3) gold is named only for the phage-selection preparations)

KPNA4 ARM [1] = biological target: T2, KPNA4 ARM (Homo sapiens, UniProt O00629); experiment: FP competition, KPNA4 ARM minor pocket (FITC-NCOR2 probe); settings: for effect of phosphorylation on the affinity for KPNA4, in words: FP competition with FITC-NCOR2 probe, phosphorylated versus unphosphorylated NCOR1 peptide
T2 construct: O00629; KPNA4; Arm; 68; 487; pETM33/pETM41; Genescript; made in house; host or cells: bacteria (E. coli BL21(DE3) gold is named only for the phage-selection preparations)
Text: (§1) Like other importins, KPNA4 has two distinct NLS‐binding pockets on the surface of an armadillo (ARM) repeat fold (major pocket, ARM 2–4; minor pocket, ARM 6–8; Fig 5B) (Smith et al, [2018]). Bipartite NLSs are usually 17–19 amino acids long and engage both pockets. Monopartite NLSs are short basic stretches, divided into five classes (Kosugi et al, [2009]): class I KR[KR]R or K[KR]RK, class II [PR]xxKR[^DE][KR] (where ^ indicates “not”), class III KRx[WFY]xxAF, class IV [RP]xxKR[KR][^DE], and class V LGKR[KR][WFY]. The class I and class II motifs preferentially interact with the major pocket (Kosugi et al, [2009]). In contrast, class III and class IV NLSs preferentially bind to the minor pocket. Using KPNA4 as a bait against the HD2 P8 library we identified 33 peptides found in 32 proteins. Of the 26 proteins for which information was available, 22 proteins were annotated as having nuclear or nucleolar localization in the UniProt database. To gain additional information we combined the data generated for KPNA4 by screening against the complete P8 HD2 library, with the results generated using two relevant sublibraries (the cytoplasmic and nuclear, and nuclear sublibraries) resulting in a set of 92 peptides containing NLS‐like sequences found in 76 proteins. Using these peptides we could generate consensus motifs that matched four of the previously reported NLS classes (Fig 5A; class I‐IV). […] Three peptides bound only to the major pocket. Eight peptides with class III motif and one KRxH‐containing peptide only bound to the minor pocket. Five peptides outcompeted both probe peptides, which may be explained by the amino acid sequence matching both class II and class III motifs (e.g., 1135‐ PSPKRKL ‐1139 in ZNF532; Fig 5), and possibly by cross specificity of the two binding pockets.

KPNA4 ARM [2] = biological target: T2, KPNA4 ARM; experiment: FP competition, KPNA4 ARM major pocket (FITC-Myc probe); settings: FP competition with FITC-Myc320-328 probe for the major pocket; 50 mM KPO4 pH 7.5; n = 3 technical replicates
Text: as §1

TLN1 PTB = biological target: T3, TLN1 PTB (Homo sapiens, UniProt Q9Y490); experiment: FP competition, TLN1 PTB
T3 construct: Q9Y490; TLN1; PTB; 309; pHH0103; Sidhu Lab (PMID: 33438817); made in house; host or cells: bacteria (E. coli BL21(DE3) gold is named only for the phage-selection preparations)

KEAP1 Kelch = biological target: T4, KEAP1 Kelch (Homo sapiens, UniProt Q14145); experiment: FP competition, KEAP1 Kelch; settings: for binding to KEAP1 Kelch, result in words: FP competition with FITC-NFE2L1 probe
T4 construct: Q14145; KEAP1; Kelch; 321; 609; pETM33; Genescript; made in house; host or cells: bacteria (E. coli BL21(DE3) gold is named only for the phage-selection preparations)
T4 sequence (Q14145 321-609): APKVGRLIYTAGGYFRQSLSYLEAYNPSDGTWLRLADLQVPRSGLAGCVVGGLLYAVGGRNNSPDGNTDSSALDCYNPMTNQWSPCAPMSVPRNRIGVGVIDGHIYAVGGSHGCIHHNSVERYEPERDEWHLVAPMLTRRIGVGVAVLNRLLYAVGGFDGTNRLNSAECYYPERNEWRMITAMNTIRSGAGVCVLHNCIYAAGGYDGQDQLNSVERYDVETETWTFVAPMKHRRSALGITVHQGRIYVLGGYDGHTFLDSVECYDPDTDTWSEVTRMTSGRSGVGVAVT
Experimental: Fluorescence polarization affinity measurements were carried out with an iD5 multidetection plate reader (Molecular Devices) using Corning assay 96‐well half area black Flat‐bottom Nonbinding surface plates (Corning, USA #3993). The settings were 485 nm excitation and 535 nm for emission at a reading height of 1.76 mm and total volume of 50 µl. Peptides were obtained from GeneCust (France) at > 95% purity. Unlabeled peptides were dissolved in 50 mM KPO4 or 50 mM NaPO4, pH 7.5. FITC‐labeled peptides were dissolved in dimethyl sulfoxide (DMSO). Protein for saturation experiments, or peptides for the displacement experiments, were arrayed in serial dilution in 50 mM KPO4 pH 7.5 in 25 µl, followed by addition of 25 µl of a master mix. For saturation binding experiments, the master mix contained 2 mM DTT and 10 nM FITC‐labeled peptide in 50 mM KPO4 pH 7.5 or 50 mM NaPO4 pH 7.5. For competition experiments, the master mix was supplemented with the protein of interest at a concentration of four times the K D value. Data were analyzed with GraphPad Prism version 9.0.0 for MacOS (GraphPad Software, San Diego, California USA, www.graphpad.com). For direct binding, we used a quadratic equation with pept indicating the fixed probe peptide concentrations, X indicating the protein concentration, the constant A being the signal amplitude divided by probe peptide concentration, and B is the plateau value: Y=A∗pept+X+KD‐(pept+X+KD)^2‐4∗pept∗X/2+B.
For the FP competition experiments data were fitted to a sigmoidal dose–response (variable response; GraphPad Prism).

T2 sequence (O00629 68-487): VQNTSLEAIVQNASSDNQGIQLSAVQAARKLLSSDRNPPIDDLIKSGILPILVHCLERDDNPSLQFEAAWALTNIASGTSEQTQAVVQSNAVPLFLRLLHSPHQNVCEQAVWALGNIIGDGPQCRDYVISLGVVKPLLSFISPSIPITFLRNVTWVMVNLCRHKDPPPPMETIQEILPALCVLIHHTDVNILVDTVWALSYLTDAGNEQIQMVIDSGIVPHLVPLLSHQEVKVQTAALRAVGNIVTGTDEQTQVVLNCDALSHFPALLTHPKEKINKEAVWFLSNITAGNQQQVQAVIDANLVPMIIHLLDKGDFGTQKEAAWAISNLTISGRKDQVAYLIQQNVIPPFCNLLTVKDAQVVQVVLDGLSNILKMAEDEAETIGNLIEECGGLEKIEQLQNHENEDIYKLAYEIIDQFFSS
T1 sequence (Q14974 1-485): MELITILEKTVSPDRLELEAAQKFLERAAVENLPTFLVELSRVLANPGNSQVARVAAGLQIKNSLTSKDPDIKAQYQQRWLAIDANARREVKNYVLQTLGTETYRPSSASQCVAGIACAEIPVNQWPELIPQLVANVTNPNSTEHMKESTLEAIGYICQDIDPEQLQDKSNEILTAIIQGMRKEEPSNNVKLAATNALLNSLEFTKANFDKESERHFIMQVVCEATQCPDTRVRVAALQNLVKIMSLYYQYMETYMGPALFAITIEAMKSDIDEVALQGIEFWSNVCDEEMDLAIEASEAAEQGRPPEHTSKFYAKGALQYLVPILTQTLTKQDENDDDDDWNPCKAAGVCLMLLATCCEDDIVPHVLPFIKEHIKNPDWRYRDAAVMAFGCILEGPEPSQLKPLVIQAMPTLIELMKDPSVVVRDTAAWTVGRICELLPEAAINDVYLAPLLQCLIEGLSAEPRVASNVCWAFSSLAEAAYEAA
T3 sequence (Q9Y490 309-401): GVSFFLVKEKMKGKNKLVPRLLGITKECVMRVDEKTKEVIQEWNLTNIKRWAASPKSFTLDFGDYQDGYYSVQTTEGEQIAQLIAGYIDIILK

Compound	IC50 (KPNA4 ARM [1]) [µM]	IC50 (KEAP1 Kelch) [µM]	other results
CC(=O)NCC(=O)N[C@@H](Cc1ccc(O)cc1)C(=O)N[C@H](C(=O)N[C@@H](Cc1ccccc1)C(=O)N[C@@H](CCC(N)=O)C(=O)N[C@H](C(=O)N[C@@H](CCC(N)=O)C(=O)N[C@@H](CC(=O)O)C(=O)NCC(=O)N[C@@H](C)C(=O)N1CCC[C@H]1C(=O)NCC(=O)N[C@H](C(=O)N[C@@H](Cc1ccccc1)C(=O)N[C@@H](CC(N)=O)C(=O)N[C@@H](Cc1ccccc1)C(=O)O)[C@@H](C)O)C(C)C)[C@@H](C)O [KPNA2_514–529]			Ki (KPNB1 HEAT): 1000 µM
CC[C@H](C)[C@H](NC(=O)[C@H](CC(N)=O)NC(=O)CNC(=O)[C@H](CCC(=O)O)NC(=O)[C@@H](NC(=O)[C@H](CO)NC(=O)[C@H](CCC(=O)O)NC(=O)[C@H](Cc1ccc(O)cc1)NC(=O)[C@H](CO)NC(=O)[C@H](CCCNC(=N)N)NC(=O)[C@H](CCCCN)NC(=O)[C@H](CC(C)C)NC(=O)[C@H](COP(=O)(O)O)NC(=O)[C@@H](NC(=O)[C@H](CCC(=O)O)NC(C)=O)[C@@H](C)CC)C(C)C)C(=O)N[C@@H](CCCCN)C(N)=O [NCOR1 pS1242] (Ac-EI[pS]LKRSYESVEGNIK-NH2)	31		effect of phosphorylation on the affinity for KPNA4, in words (KPNA4 ARM [1]): minor effects
CC[C@H](C)[C@H](NC(=O)[C@H](CC(N)=O)NC(=O)CNC(=O)[C@H](CCC(=O)O)NC(=O)[C@@H](NC(=O)[C@H](CO)NC(=O)[C@H](CCC(=O)O)NC(=O)[C@H](Cc1ccc(O)cc1)NC(=O)[C@H](COP(=O)(O)O)NC(=O)[C@H](CCCNC(=N)N)NC(=O)[C@H](CCCCN)NC(=O)[C@H](CC(C)C)NC(=O)[C@H](CO)NC(=O)[C@@H](NC(=O)[C@H](CCC(=O)O)NC(C)=O)[C@@H](C)CC)C(C)C)C(=O)N[C@@H](CCCCN)C(N)=O [NCOR1 pS1246] (Ac-EISLKR[pS]YESVEGNIK-NH2)	240		effect of phosphorylation on the affinity for KPNA4, in words (KPNA4 ARM [1]): marked loss of affinity
CC[C@H](C)[C@H](NC(=O)[C@H](CC(N)=O)NC(=O)CNC(=O)[C@H](CCC(=O)O)NC(=O)[C@@H](NC(=O)[C@H](CO)NC(=O)[C@H](CCC(=O)O)NC(=O)[C@H](Cc1ccc(OP(=O)(O)O)cc1)NC(=O)[C@H](CO)NC(=O)[C@H](CCCNC(=N)N)NC(=O)[C@H](CCCCN)NC(=O)[C@H](CC(C)C)NC(=O)[C@H](CO)NC(=O)[C@@H](NC(=O)[C@H](CCC(=O)O)NC(C)=O)[C@@H](C)CC)C(C)C)C(=O)N[C@@H](CCCCN)C(N)=O [NCOR1 pY1247] (Ac-EISLKRS[pY]ESVEGNIK-NH2)	21		effect of phosphorylation on the affinity for KPNA4, in words (KPNA4 ARM [1]): minor effects
CC(C)C[C@H](NC(=O)[C@H](CCCNC(=N)N)NC(=O)[C@@H]1CCCN1C(=O)[C@H](CCCNC(=N)N)NC(=O)[C@H](CCCCN)NC(=O)[C@H](CC(N)=O)NC(=O)[C@@H]1CCCN1C(=O)[C@H](Cc1ccccc1)NC(=O)[C@@H](NC(=O)[C@H](CC(=O)O)NC(=O)[C@H](CCC(=O)O)NC(=O)[C@@H](N)CO)[C@@H](C)O)C(=O)N[C@@H](CCC(=O)O)C(=O)N[C@@H](CC(=O)O)C(=O)N[C@@H](CCCCN)C(=O)N[C@H](C(=O)N[C@H](C(N)=O)C(C)C)[C@@H](C)O [SPRTN]			IC50 (KPNA4 ARM [2]): 0.26 µM
CC(C)C[C@H](NC(=O)[C@H](CCCCN)NC(=O)[C@H](CCCNC(=N)N)NC(=O)[C@H](CCCCN)NC(=O)[C@@H]1CCCN1C(=O)[C@H](CO)NC(=O)[C@@H]1CCCN1)C(=O)N[C@@H](CCC(=O)O)C(=O)N[C@@H](CCC(=O)O)C(=O)N1CCC[C@H]1C(=O)N[C@H](C(=O)N[C@@H](CC(C)C)C(=O)N[C@@H](CCC(=O)O)C(=O)N[C@@H](Cc1ccccc1)C(=O)N[C@@H](CCCNC(=N)N)C(=O)N1CCC[C@H]1C(N)=O)C(C)C [ZNF532]	1.3		
AGVKRSAAEMYGSVTE-NH2 [HNRNPC]	0.5		
AKWDTANNPLYKEATS-NH2 [ITB3]			IC50 (TLN1 PTB): 1430 µM; Ki (TLN1 PTB; FP competition with FITC-PIP5K1C probe): 500 µM
Ac-AYAPPVFVFQKDKGQK-NH2 [RANBP3]			IC50 (KPNB1 HEAT): 2200 µM; Ki (KPNB1 HEAT): ~1000 µM
Ac-EISLKRSYESVEGNIK-NH2 [NCOR1 Wt]	11		
Ac-GIIDPSTGECFPVTDY-NH2		2.3	binding to KEAP1 Kelch, result in words (KEAP1 Kelch): no effect on binding
Ac-GIIDPSTGERFPVTDY-NH2 [PLEC 4457-4471]		1.5	
Ac-LIYVDKENGEPGTRVV-NH2 [PTTG1]		3	
Ac-NPPVATFVFGQSSNPY-NH2 [NUP153]			IC50 (KPNB1 HEAT): 49 µM
Ac-PPLPPPPLPPAPSLPY-NH2 [ATF5]		4430	
Ac-VLPDCLTDGSDVVSDY-NH2 [CFAP36]			Ki (KEAP1 Kelch; FP competition with FITC-NFE2L1 228-243 probe, protein at 4x KD and 10 nM probe in master mix, 50 mM KPO4 pH 7.5, Ki calculated from IC50, triplicates): > 2040 µM; IC50 (KEAP1 Kelch; FP competition with FITC-NFE2L1 228-243 probe, protein at 4x KD and 10 nM probe in master mix, 50 mM KPO4 pH 7.5, triplicates): > 2040 µM; binding to KEAP1 Kelch, result in words (KEAP1 Kelch): did not bind at all
Ac-YDEEKGEFLPIQPAQH-NH2 [NFE2L2 T80K]		2540	
Ac-YDEETGEFLPIQPAQH-NH2 [NFE2L2 Wt]		0.31	
Ac-YDEKTGEFLPIQPAQH-NH2 [NFE2L2 E79K]		1650	
Ac-YMQHLQEQQQQQMHLQ-NH2 [TREF1]		490	
DHQFPAKRPRLSEPQG-NH2 [HJURP]	170		IC50 (KPNA4 ARM [2]): 0.076 µM
